Laboratory results as given in the NIST ThermoML archive (doi:10.1016/j.jct.2016.12.029).

Assay: xn = mol fraction of the nth substance listed
Settings: Gas, Buoyancy - hydrostatic balance with magnetic suspension - one sinker

C=C(F)C(F)(F)F [2,3,3,3-tetrafluoro-1-propene] + CCC
Settings | mass density [kg/m3]
265.46 K, 101.2 kPa, x1 = 1 | 5.404
265.48 K, 207.2 kPa, x1 = 1 | 11.507
265.55 K, 106.5 kPa, x1 = 0.8116 | 5.018
265.56 K, 107.5 kPa, x1 = 0.583 | 4.254
265.57 K, 104 kPa, x1 = 0.0906 | 2.433
265.57 K, 181.7 kPa, x1 = 0.8116 | 8.775
265.57 K, 198.3 kPa, x1 = 0.583 | 8.052
265.57 K, 206.2 kPa, x1 = 0.0906 | 4.954
265.58 K, 299.3 kPa, x1 = 0.0906 | 7.374
265.59 K, 295.1 kPa, x1 = 0.583 | 12.343
265.6 K, 249 kPa, x1 = 0.8116 | 12.31
270.36 K, 101 kPa, x1 = 1 | 5.279
270.38 K, 164.6 kPa, x1 = 1 | 8.792
270.38 K, 250.3 kPa, x1 = 1 | 13.798
270.4 K, 103.2 kPa, x1 = 0.2546 | 2.918
270.41 K, 182.2 kPa, x1 = 0.2546 | 5.239
270.42 K, 267 kPa, x1 = 0.2546 | 7.839
270.44 K, 102.4 kPa, x1 = 0.0906 | 2.353
270.44 K, 194.1 kPa, x1 = 0.0906 | 4.555
270.44 K, 338.6 kPa, x1 = 0.0906 | 8.243
270.45 K, 102.6 kPa, x1 = 0.583 | 3.972
270.45 K, 215 kPa, x1 = 0.583 | 8.58
270.47 K, 349 kPa, x1 = 0.583 | 14.488
270.5 K, 105.1 kPa, x1 = 0.8116 | 4.852
270.5 K, 182.6 kPa, x1 = 0.8116 | 8.631
270.5 K, 286.6 kPa, x1 = 0.8116 | 14.015
275.39 K, 106.2 kPa, x1 = 1 | 5.448
275.4 K, 208.6 kPa, x1 = 1 | 11.064
275.41 K, 188.7 kPa, x1 = 0.2546 | 5.334
275.41 K, 306 kPa, x1 = 0.2546 | 8.898
275.42 K, 303.7 kPa, x1 = 1 | 16.657
275.43 K, 404.2 kPa, x1 = 0.2546 | 12.054
275.45 K, 102.2 kPa, x1 = 0.583 | 3.894
275.45 K, 198.4 kPa, x1 = 0.583 | 7.744
275.46 K, 103.9 kPa, x1 = 0.0906 | 2.338
275.46 K, 196 kPa, x1 = 0.0906 | 4.504
275.46 K, 282.9 kPa, x1 = 0.0906 | 6.633
275.47 K, 107.9 kPa, x1 = 0.8116 | 4.886
275.47 K, 211 kPa, x1 = 0.8116 | 9.844
275.47 K, 300.7 kPa, x1 = 0.583 | 12.066
275.47 K, 374.9 kPa, x1 = 0.0906 | 8.996
275.49 K, 325.2 kPa, x1 = 0.8116 | 15.724
275.49 K, 415.1 kPa, x1 = 0.583 | 17.223
280.28 K, 103.6 kPa, x1 = 1 | 5.208
280.29 K, 176.6 kPa, x1 = 1 | 9.076
280.29 K, 274 kPa, x1 = 1 | 14.527
280.29 K, 356.2 kPa, x1 = 1 | 19.43
280.31 K, 101.5 kPa, x1 = 0.2546 | 2.757
280.31 K, 195.7 kPa, x1 = 0.2546 | 5.424
280.31 K, 360.4 kPa, x1 = 0.2546 | 10.374
280.31 K, 476.4 kPa, x1 = 0.2546 | 14.119
280.32 K, 279.7 kPa, x1 = 0.2546 | 7.895
280.33 K, 202 kPa, x1 = 0.583 | 7.713
280.34 K, 102.8 kPa, x1 = 0.583 | 3.835
280.34 K, 300.9 kPa, x1 = 0.583 | 11.781
280.34 K, 401.2 kPa, x1 = 0.583 | 16.148
280.35 K, 481.2 kPa, x1 = 0.583 | 19.822
280.36 K, 103.6 kPa, x1 = 0.8116 | 4.599
280.36 K, 106.5 kPa, x1 = 0.0906 | 2.352
280.37 K, 190.7 kPa, x1 = 0.8116 | 8.666
280.37 K, 207.3 kPa, x1 = 0.0906 | 4.678
280.38 K, 294.7 kPa, x1 = 0.8116 | 13.792
280.39 K, 315.2 kPa, x1 = 0.0906 | 7.287
280.4 K, 369 kPa, x1 = 0.8116 | 17.665
280.4 K, 425 kPa, x1 = 0.0906 | 10.088
285.27 K, 258.8 kPa, x1 = 1 | 13.34
285.28 K, 104.7 kPa, x1 = 1 | 5.162
285.28 K, 164.2 kPa, x1 = 1 | 8.23
285.28 K, 358.5 kPa, x1 = 1 | 19.078
285.29 K, 306.8 kPa, x1 = 0.2546 | 8.517
285.29 K, 414.7 kPa, x1 = 0.2546 | 11.796
285.29 K, 520.3 kPa, x1 = 0.2546 | 15.183
285.3 K, 104 kPa, x1 = 0.2546 | 2.771
285.3 K, 204 kPa, x1 = 0.2546 | 5.541
285.32 K, 104.6 kPa, x1 = 0.583 | 3.829
285.32 K, 198.9 kPa, x1 = 0.583 | 7.432
285.32 K, 309.1 kPa, x1 = 0.583 | 11.855
285.32 K, 414.1 kPa, x1 = 0.583 | 16.308
285.33 K, 524.2 kPa, x1 = 0.583 | 21.282
285.35 K, 103.9 kPa, x1 = 0.0906 | 2.256
285.35 K, 107.3 kPa, x1 = 0.8116 | 4.677
285.35 K, 203.4 kPa, x1 = 0.8116 | 9.079
285.36 K, 205.6 kPa, x1 = 0.0906 | 4.552
285.37 K, 298.4 kPa, x1 = 0.0906 | 6.733
